ChEMBL document CHEMBL3046937, “Mass spectral characterization of fatty acid amides from alfalfa trichomes and their deterrence against the potato leafhopper” (Phytochemistry, 2005)
Active and inactive are the calls of the source. The rule behind the calls is not given here.

Experiments:
Format in all cases: functional, organism-based
Empoasca fabae [1] = assay: Food deterrence activity against Empoasca fabae (potato leafhopper) assessed as deterring insect settling at 12.5 ug/cm2 through compound application to surface of sachet containing artificial diet measured at 15 min interval over next 350 min by two-choice bioassay
Empoasca fabae [2] = assay: Food deterrence activity against Empoasca fabae (potato leafhopper) assessed as deterring insect settling at 25 ug/cm2 through compound application to surface of sachet containing artificial diet measured at 15 min interval over next 350 min by two-choice bioassay
Empoasca fabae [3] = assay: Food deterrence activity against Empoasca fabae (potato leafhopper) assessed as deterring insect settling at 50 ug/cm2 through compound application to surface of sachet containing artificial diet measured at 15 min interval over next 350 min by two-choice bioassay
Empoasca fabae [4] = assay: Food deterrence activity against Empoasca fabae (potato leafhopper) assessed as deterring insect settling at 12.5 to 100 ug/cm2 through compound application to surface of sachet containing artificial diet measured at 15 min interval over next 350 min by two-choice bioassay
Empoasca fabae [5] = assay: Food deterrence activity against Empoasca fabae (potato leafhopper) assessed as deterring insect settling at 100 ug/cm2 through compound application to surface of sachet containing artificial diet measured at 15 min interval over next 350 min by two-choice bioassay

For `CCCCC/C=C\C/C=C\CCCCCCCC(=O)NCCC(C)C`, the Activity (Empoasca fabae [1]) was “inactive”, the Activity (Empoasca fabae [2]) was “Active” and the Activity (Empoasca fabae [3]) was “Active”. The Activity (Empoasca fabae [4]) was “Dose-dependent effect” and the Activity (Empoasca fabae [5]) was “Active”.
